Test results reported in PubChem BioAssay (NCI).
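Interpolation was linear, between the two tested concentrations surrounding the appropriate level; five concentrations were tested over 48 hours in 96-well plates. GI50 = concentration required for 50% inhibition of growth. Definition used: TGI = concentration required for complete inhibition of growth.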

Key:
Assay in all cases: NCI-60 cell line screen, 48 h
786-0 renal = test system: 786-0 renal
A498 renal = test system: A498 renal
A549 NSCLC = test system: A549 NSCLC
ACHN renal = test system: ACHN renal
BT-549 breast = test system: BT-549 breast
CAKI-1 renal = test system: CAKI-1 renal
CCRF-CEM leukemia = test system: CCRF-CEM leukemia
COLO 205 colon = test system: COLO 205 colon
DU-145 prostate = test system: DU-145 prostate
EKVX NSCLC = test system: EKVX NSCLC
HCC-2998 colon = test system: HCC-2998 colon
HCT-116 colon = test system: HCT-116 colon
HCT-15 colon = test system: HCT-15 colon
HL-60(TB) leukemia = test system: HL-60(TB) leukemia
HOP-62 NSCLC = test system: HOP-62 NSCLC
HOP-92 NSCLC = test system: HOP-92 NSCLC
HS 578T breast = test system: HS 578T breast
HT29 colon = test system: HT29 colon
IGROV1 ovarian = test system: IGROV1 ovarian
K-562 leukemia = test system: K-562 leukemia
KM12 colon = test system: KM12 colon
LOX IMVI melanoma = test system: LOX IMVI melanoma
M14 melanoma = test system: M14 melanoma
MALME-3M melanoma = test system: MALME-3M melanoma
MCF7 breast = test system: MCF7 breast
MDA-MB-231 breast = test system: MDA-MB-231 breast
MDA-MB-435 = test system: MDA-MB-435
MOLT-4 leukemia = test system: MOLT-4 leukemia
NCI-H226 lung = test system: NCI-H226 lung
NCI-H23 lung = test system: NCI-H23 lung
NCI-H460 lung = test system: NCI-H460 lung
NCI-H522 lung = test system: NCI-H522 lung
NCI/ADR-RES ovarian = test system: NCI/ADR-RES ovarian
OVCAR-3 ovarian = test system: OVCAR-3 ovarian
OVCAR-4 ovarian = test system: OVCAR-4 ovarian
OVCAR-5 ovarian = test system: OVCAR-5 ovarian
OVCAR-8 ovarian = test system: OVCAR-8 ovarian
PC-3 prostate = test system: PC-3 prostate
RPMI-8226 leukemia = test system: RPMI-8226 leukemia
RXF 393 renal = test system: RXF 393 renal
SF-268 CNS = test system: SF-268 CNS
SF-295 CNS = test system: SF-295 CNS
SF-539 CNS = test system: SF-539 CNS
SK-MEL-2 melanoma = test system: SK-MEL-2 melanoma
SK-MEL-28 melanoma = test system: SK-MEL-28 melanoma
SK-MEL-5 melanoma = test system: SK-MEL-5 melanoma
SK-OV-3 ovarian = test system: SK-OV-3 ovarian
SN12C renal = test system: SN12C renal
SNB-19 CNS = test system: SNB-19 CNS
SNB-75 CNS = test system: SNB-75 CNS
SR leukemia = test system: SR leukemia
SW-620 colon = test system: SW-620 colon
T-47D breast = test system: T-47D breast
TK-10 renal = test system: TK-10 renal
U251 CNS = test system: U251 CNS
UACC-257 melanoma = test system: UACC-257 melanoma
UACC-62 melanoma = test system: UACC-62 melanoma
UO-31 renal = test system: UO-31 renal

In the case of `Nc1nc(-c2cccc([N+](=O)[O-])c2)c(N=Nc2ccc([N+](=O)[O-])cc2Cl)s1`, the GI50 (786-0 renal) is reported as 351 nM, the TGI (786-0 renal) is reported as 7210 nM and the GI50 (A498 renal) is reported as 270 nM. For the same compound, the TGI (A498 renal) was 737 nM, the GI50 (A549 NSCLC) was 354 nM and the TGI (A549 NSCLC) was > 34900 nM. It also gave a GI50 (ACHN renal) of 287 nM, a TGI (ACHN renal) of 11300 nM and a GI50 (BT-549 breast) of 206 nM. It also gave a TGI (BT-549 breast) of 842 nM, a GI50 (CAKI-1 renal) of 204 nM and a TGI (CAKI-1 renal) of 1700 nM. It also gave a GI50 (CCRF-CEM leukemia) of 310 nM, a TGI (CCRF-CEM leukemia) of 9120 nM and a GI50 (COLO 205 colon) of 342 nM. The TGI (COLO 205 colon) was 1290 nM, the GI50 (DU-145 prostate) was 383 nM and the TGI (DU-145 prostate) was > 49900 nM. It also gave a GI50 (EKVX NSCLC) of 260 nM, a TGI (EKVX NSCLC) of 4200 nM and a GI50 (HCC-2998 colon) of 309 nM. The TGI (HCC-2998 colon) was 7420 nM, the GI50 (HCT-116 colon) was 231 nM and the TGI (HCT-116 colon) was 1230 nM. It also gave a GI50 (HCT-15 colon) of 193 nM, a TGI (HCT-15 colon) of 2000 nM and a GI50 (HL-60(TB) leukemia) of 254 nM. For the same compound, the TGI (HL-60(TB) leukemia) was 1130 nM, the GI50 (HOP-62 NSCLC) was 312 nM and the TGI (HOP-62 NSCLC) was 1700 nM. It also gave a GI50 (HOP-92 NSCLC) of 48.6 nM, a TGI (HOP-92 NSCLC) of 418 nM and a GI50 (HS 578T breast) of 239 nM. The TGI (HS 578T breast) was 1210 nM, the GI50 (HT29 colon) was 342 nM and the TGI (HT29 colon) was 4380 nM. For the same compound, the GI50 (IGROV1 ovarian) was 446 nM, the TGI (IGROV1 ovarian) was 18500 nM and the GI50 (K-562 leukemia) was 151 nM. For the same compound, the TGI (K-562 leukemia) was 4990 nM, the GI50 (KM12 colon) was 272 nM and the TGI (KM12 colon) was 3730 nM. It also gave a GI50 (LOX IMVI melanoma) of 317 nM, a TGI (LOX IMVI melanoma) of 4610 nM and a GI50 (M14 melanoma) of 377 nM. It also gave a TGI (M14 melanoma) of 6750 nM, a GI50 (MALME-3M melanoma) of 172 nM and a TGI (MALME-3M melanoma) of 739 nM. For the same compound, the GI50 (MCF7 breast) was 192 nM, the TGI (MCF7 breast) was 1360 nM and the GI50 (MDA-MB-231 breast) was 289 nM. For the same compound, the TGI (MDA-MB-231 breast) was 1780 nM, the GI50 (MDA-MB-435) was 291 nM and the TGI (MDA-MB-435) was 3650 nM. It also gave a GI50 (MOLT-4 leukemia) of 266 nM, a TGI (MOLT-4 leukemia) of 2580 nM and a GI50 (NCI-H226 lung) of 196 nM. It also gave a TGI (NCI-H226 lung) of 816 nM, a GI50 (NCI-H23 lung) of 168 nM and a TGI (NCI-H23 lung) of 786 nM. For the same compound, the GI50 (NCI-H460 lung) was 243 nM, the TGI (NCI-H460 lung) was 1260 nM and the GI50 (NCI-H522 lung) was 119 nM. It also gave a TGI (NCI-H522 lung) of 2490 nM, a GI50 (NCI/ADR-RES ovarian) of 254 nM and a TGI (NCI/ADR-RES ovarian) of 2050 nM. It also gave a GI50 (OVCAR-3 ovarian) of 245 nM, a TGI (OVCAR-3 ovarian) of 12900 nM and a GI50 (OVCAR-4 ovarian) of 274 nM. For the same compound, the TGI (OVCAR-4 ovarian) was > 67400 nM, the GI50 (OVCAR-5 ovarian) was 535 nM and the TGI (OVCAR-5 ovarian) was 36400 nM. For the same compound, the GI50 (OVCAR-8 ovarian) was 308 nM, the TGI (OVCAR-8 ovarian) was 4460 nM and the GI50 (PC-3 prostate) was 244 nM. For the same compound, the TGI (PC-3 prostate) was 7390 nM, the GI50 (RPMI-8226 leukemia) was 99.6 nM and the GI50 (RXF 393 renal) was 251 nM. For the same compound, the TGI (RXF 393 renal) was 704 nM, the GI50 (SF-268 CNS) was 310 nM and the TGI (SF-268 CNS) was > 41400 nM. The GI50 (SF-295 CNS) was 261 nM, the TGI (SF-295 CNS) was 1110 nM and the GI50 (SF-539 CNS) was 344 nM. For the same compound, the TGI (SF-539 CNS) was 10400 nM, the GI50 (SK-MEL-2 melanoma) was 86 nM and the TGI (SK-MEL-2 melanoma) was 401 nM. For the same compound, the GI50 (SK-MEL-28 melanoma) was 336 nM, the TGI (SK-MEL-28 melanoma) was 8140 nM and the GI50 (SK-MEL-5 melanoma) was 87.7 nM. For the same compound, the TGI (SK-MEL-5 melanoma) was 286 nM, the GI50 (SK-OV-3 ovarian) was 160 nM and the TGI (SK-OV-3 ovarian) was 1000 nM. For the same compound, the GI50 (SN12C renal) was 261 nM, the TGI (SN12C renal) was 4570 nM and the GI50 (SNB-19 CNS) was 311 nM. It also gave a TGI (SNB-19 CNS) of 20800 nM, a GI50 (SNB-75 CNS) of 171 nM and a TGI (SNB-75 CNS) of 2280 nM. It also gave a GI50 (SR leukemia) of 293 nM, a TGI (SR leukemia) of 2940 nM and a GI50 (SW-620 colon) of 325 nM. It also gave a TGI (SW-620 colon) of 5460 nM, a GI50 (T-47D breast) of 67.1 nM and a TGI (T-47D breast) of 771 nM. It also gave a GI50 (TK-10 renal) of 573 nM, a TGI (TK-10 renal) of 8870 nM and a GI50 (U251 CNS) of 213 nM. For the same compound, the TGI (U251 CNS) was 1320 nM, the GI50 (UACC-257 melanoma) was 133 nM and the TGI (UACC-257 melanoma) was 1370 nM. The GI50 (UACC-62 melanoma) was 144 nM, the TGI (UACC-62 melanoma) was 1620 nM and the GI50 (UO-31 renal) was 236 nM. It also gave a TGI (UO-31 renal) of 1380 nM.
